Results reported in patent US11220503B2, “Phthalazine derivatives, preparation method, pharmaceutical composition and usage thereof” (Shanghai SIMR Biotech Co., Ltd., priority 2015, dated 2022).

Target: T1, α5β3γ2 receptor (Homo sapiens, UniProt P18507+P31644)
T1 construct: expressed in transfected cells; host or cells: HEK-293 (stably transfected)
Assay: Supplementary data for cell level screening: new electrophysiology method (I. Lecker et al)
Type: cell-based
Details: for Inverse agonism efficacy(%): new method, CsCl intracellular solution, GABA 0.1˜0.3 CM, other procedures as previous method; for inverse agonism efficacy of the compound/α5IA inverse agonism efficacy: ratio to the α5IA reference run above in the table (r4 or r29)
Protocol: The inventors used electrophysiological methods to assay the inverse agonist efficacy of the substance to be tested. The detailed procedures are as follows: (1) Different subunits of GABAA receptors were expressed in human embryonic kidney cells 293 (HEK293). The cells were cultured in a culture medium and used as a cell model for screening potential analgesics. The α, β and γ subunits are necessary to form complete functional GABAA receptors. In this example, the inventor has established the following cell model: (a) α5 subunit (protein sequence is GenBank accession number: NP_001158509), β3 subunit (protein sequence is GenBank accession number: NP_068712) and γ2 subunit (protein sequence is GenBank accession number: NP_944494) were expressed in HEK-293 cell lines at the same time, which formed the complete functional GABAA receptors. (2) Cells were stably transfected HEK-293 cells expressing α5β3γ2 receptor, which were labeled by green fluorescent protein (GFP). Cells were grown in 10 cm dishes. The cells were passaged after reaching 80-90% confluence. During passaging, the culture medium was removed and discarded, 3 mL DMEM medium (Gibco™) was added to the dishes, the dishes were shaken slightly, and DMEM was removed and discarded. 3 mL Trypsin (Trypsin-EDTA 0.05%, Gibco™) was added and cells were digested at 37° C. for 3 minutes. Then 3 mL complete growth medium (DMEM+10% horse serum (Gibco™)) was added and the cells at the bottom of the culture dishes were dispersed. The cell suspension were transferred to a 15 mL centrifugal tube (Corning®) and then centrifuged at 200 g for 3 minutes. The supernatant was discarded, 4 mL complete growth medium was added, and the cells were resuspended by gently blowing. The cell suspension was diluted by 1:5 or 1:10 for subculturing. The cell suspension was diluted by 1:12 for electrophysiology experiment, which are added to the 24 well plate (Corning®) which has a glass slide pre-treated with poly-D-lysine. The cells were adhered to the slide before the experiment was conducted. The cells were maintained in culture for no more than 24 hours before use. (3) Compound concentration: for screening, all compounds were diluted to a final concentration of 100 nM. […] The compounds were at the concentration of 1 nM, 10 nM, 50 nM, 100 nM and 1000 nM in dose-inverse agonism efficacy (%) experiment. The whole cell patch clamp technique was used in electrophysiology experiments. The extracellular solution (ECS) contained: 150 mM NaCl, 5 mM KCl, 2.5 mM CaCl2, 1 mM MgCl2, 10 mM HEPES and 10 mM glucose (pH 7.4); […], 5 mM EGTA, 10 mM HEPES ([…] water). The currents were recorded by an EPC-10 amplifier and the PatchMaster software (HEKA). Patch electrodes with a resistance of 5-6 MΩ were pulled from borosilicate glass (Sutter). The diluted compounds were perfused by OCTAFLOWII system. GFP positive and independently growing cells were selected for recording. During recording, the membrane voltage was clamped at −60 mV. During experiment, the cells were firstly perfused with ECS for 20 seconds. When the baseline reached to a stable state, cells were then perfused with GABA solution. Then the current induced by GABA can be detected. After about 20-40 seconds, the current was stable. ECS was switched to compounds solution and the effects of the compounds were detected. At last, the perfusion solution was switched to ECS. The experiment was finished when the post-baseline returned to the pre-baseline before compounds perfusion. Only the data whose pre-baseline and post-baseline are at almost the same level were used for analysis. […] Then, compounds were diluted at the desired concentration in GABA ECS. (4) Currents were analyzed with the PatchMaster (HEKA) software. The GABA currents before (Ipre) and after (Ipost) compounds perfusion were recorded respectively. The efficacies of compounds were calculated by the following equation: inverse agonism efficacy=(Ipost-Ipre)*100/Ipre. N indicates experiment numbers. […]

T1 sequence (P31644 32-462): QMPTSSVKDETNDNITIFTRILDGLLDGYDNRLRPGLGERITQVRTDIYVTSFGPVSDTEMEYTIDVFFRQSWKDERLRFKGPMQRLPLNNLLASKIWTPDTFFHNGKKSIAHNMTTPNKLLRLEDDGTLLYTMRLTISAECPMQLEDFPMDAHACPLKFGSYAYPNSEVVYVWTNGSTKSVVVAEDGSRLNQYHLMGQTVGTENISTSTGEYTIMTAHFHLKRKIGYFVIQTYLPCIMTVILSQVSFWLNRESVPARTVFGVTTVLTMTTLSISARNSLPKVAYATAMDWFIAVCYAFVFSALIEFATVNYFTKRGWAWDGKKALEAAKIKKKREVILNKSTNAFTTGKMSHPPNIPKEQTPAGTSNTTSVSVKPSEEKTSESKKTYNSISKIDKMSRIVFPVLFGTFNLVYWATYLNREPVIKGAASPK
T1 sequence (P28472 26-473 isoform P28472-2 partner limits assumed): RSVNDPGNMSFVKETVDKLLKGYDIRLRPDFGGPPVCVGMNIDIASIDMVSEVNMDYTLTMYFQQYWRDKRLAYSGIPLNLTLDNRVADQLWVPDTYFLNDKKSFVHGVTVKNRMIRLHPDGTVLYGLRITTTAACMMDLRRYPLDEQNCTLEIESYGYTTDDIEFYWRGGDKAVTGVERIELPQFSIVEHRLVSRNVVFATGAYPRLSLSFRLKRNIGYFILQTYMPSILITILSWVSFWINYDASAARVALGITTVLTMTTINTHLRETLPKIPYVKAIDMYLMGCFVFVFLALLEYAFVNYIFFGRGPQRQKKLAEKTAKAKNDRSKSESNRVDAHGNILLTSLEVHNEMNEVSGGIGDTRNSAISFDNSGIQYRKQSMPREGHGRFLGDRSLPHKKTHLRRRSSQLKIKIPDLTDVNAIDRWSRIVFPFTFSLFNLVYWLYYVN
T1 sequence (P18507 40-475): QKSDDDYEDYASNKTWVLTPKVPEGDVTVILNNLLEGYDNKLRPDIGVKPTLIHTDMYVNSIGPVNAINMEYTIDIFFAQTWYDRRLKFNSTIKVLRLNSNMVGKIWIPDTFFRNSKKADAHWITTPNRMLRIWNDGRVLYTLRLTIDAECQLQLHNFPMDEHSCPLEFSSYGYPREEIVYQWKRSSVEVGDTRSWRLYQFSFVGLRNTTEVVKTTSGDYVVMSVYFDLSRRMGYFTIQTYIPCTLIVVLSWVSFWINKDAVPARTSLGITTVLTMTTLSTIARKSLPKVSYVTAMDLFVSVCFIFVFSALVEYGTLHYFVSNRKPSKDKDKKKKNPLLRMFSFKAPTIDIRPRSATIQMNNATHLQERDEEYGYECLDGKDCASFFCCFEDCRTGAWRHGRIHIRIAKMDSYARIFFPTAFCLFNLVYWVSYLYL

| Structure (SMILES) | Inverse agonism efficacy(%) | inverse agonism efficacy of the compound/α5IA inverse agonism efficacy |
| --- | --- | --- |
| Cc1cc(-c2nnc3c4ccccc4c(OCc4ccc(C(=O)NC5CC5)cn4)nn23)no1 [Compound 04, N-cyclopropyl-6-(((3-(5-methylisoxazol-3-yl)-[1,2,4]triazolo[3,4-a]phthalazin-6-yl)oxy)methyl) nicotinamide] | −26.5% | 1.526 |
| Cc1cc(-c2nnc3c4ccccc4c(OCc4ccc(C(=O)NC5CCN(C)CC5)cn4)nn23)no1 [Compound 11, 6-(((3-(5-methylisoxazol-3-yl)-[1,2,4]triazolo[3,4-a]phthalazin-6-yl)oxy)methyl)-N-(1-methylpiperidin-4-yl)nicotinamide] | −17.71% | 1.020 |
| Cc1cc(-c2nnc3c4ccccc4c(OCc4ccc(C(=O)NCCN5CCOCC5)cn4)nn23)no1 [Compound 12, 6-(((3-(5-methylisoxazol-3-yl)-[1,2,4]triazolo[3,4-a]phthalazin-6-yl)oxy)methyl)-N-(2-morpholinoethyl)nicotinamide] | −19.0625% | 1.098 |
| COC1CCN(C(=O)c2ccc(COc3nn4c(-c5cc(C)on5)nnc4c4ccccc34)nc2)CC1 [Compound 22, (4-methoxypiperidin-1-yl)(6-(((3-(5-methylisoxazol-3-yl)-[1,2,4]triazolo[3,4-a]phthalazin-6-yl)oxy)methyl)pyridin-3-yl)methanone] | −33% | 1.774 |
| Cc1cc(-c2nnc3c4ccccc4c(OCc4ccc(C(=O)NCC5CCCO5)cn4)nn23)no1 (stereo not shown) [Compound 26, 6-(((3-(5-methylisoxazol-3-yl)-[1,2,4]triazolo[3,4-a]phthalazin-6-yl)oxy)methyl)-N-((tetrahydrofuran-2-yl)methyl)nicotinamide] | −21.5% | 1.238 |
| Cc1cc(-c2nnc3c4ccccc4c(OCc4ccc(C(=O)NCCS(C)(=O)=O)cn4)nn23)no1 [Compound 27, 6-(((3-(5-methylisoxazol-3-yl)-[1,2,4]triazolo[3,4-a]phthalazin-6-yl)oxy)methyl)-N-(2-(methylsulfonyl)ethyl)nicotinamide] | −32.1% | 1.726 |
| Cc1cc(-c2nnc3c4ccccc4c(OCc4ccc(C(N)=O)cn4)nn23)no1 [Compound 28, 6-(((3-(5-methylisoxazol-3-yl)-[1,2,4]triazolo[3,4-a]phthalazin-6-yl)oxy)methyl)nicotinamide] | −19.86% | 1.143 |
| Cc1cc(-c2nnc3c4ccccc4c(OCc4ccc(C(=O)NCC(F)(F)F)cn4)nn23)no1 [Compound 30, 6-(((3-(5-methylisoxazol-3-yl)-[1,2,4]triazolo[3,4-a]phthalazin-6-yl)oxy)methyl)-N-(2,2,2-trifluoroethyl)nicotinamide] | −52% | 2.796 |
| O=C(NC1CC1)c1ccc(COc2nn3c(-c4cc(CO)on4)nnc3c3ccccc23)nc1 [Compound 36, N-cyclopropyl-6-(((3-(5-(hydroxymethyl)isoxazol-3-yl)-[1,2,4]triazolo[3,4-a]phthalazin-6-yl)oxy)methyl)nicotinamide] | −28.8% | 1.658 |
| O=C(NCC(F)(F)F)c1ccc(COc2nn3c(-c4cc(CO)on4)nnc3c3ccccc23)nc1 [Compound 42, 6-(((3-(5-(hydroxymethyl)isoxazol-3-yl)-[1,2,4]triazolo[3,4-a]phthalazin-6-yl)oxy)methyl)-N-(2,2,2-trifluoroethyl)nicotinamide] | −32.5% | 1.871 |
| O=C(NC1CCOCC1)c1ccc(COc2nn3c(-c4cc(CO)on4)nnc3c3ccccc23)nc1 [Compound 44, 6-(((3-(5-(hydroxymethyl)isoxazol-3-yl)-[1,2,4]triazolo[3,4-a]phthalazin-6-yl)oxy)methyl)-N-(tetrahydro-2H-pyran-4-yl)nicotinamide] | −20.8% | 1.196 |
| O=C(c1ccc(COc2nn3c(-c4cc(CO)on4)nnc3c3ccccc23)nc1)N1CCC1 [Compound 49, azetidin-1-yl-(6-(((3-(5-(hydroxymethyl)isoxazol-3-yl)-[1,2,4]triazolo[3,4-a]phthalazin-6-yl)oxy)methyl)pyridin-3-yl)methanone] | −22.2% | 1.278 |
| CS(=O)(=O)NNC(=O)c1ccc(COc2nn3c(-c4cc(CO)on4)nnc3c3ccccc23)nc1 [Compound 53, N′-(6-(((3-(5-(hydroxymethyl)isoxazol-3-yl)-[1,2,4]triazolo[3,4-a]phthalazin-6-yl)oxy)methyl)nicotinoyl)methanesulfonohydrazide] | −22.8% | 1.313 |
| N#Cc1cc(C(=O)N[C@H]2CCC[C@@H]2O)ccc1COc1nn2c(-c3cc(CO)on3)nnc2c2ccccc12 [Compound 56, 3-cyano-N-((1S,2S)-2-hydroxycyclopentyl)-4-(((3-(5-(hydroxymethyl)isoxazol-3-yl)-[1,2,4]triazolo[3,4-a]phthalazin-6-yl)oxy)methyl)benzamide] | −27.6% | 1.589 |
